The target of one assay is T1, 12-LO (Homo sapiens, UniProt P18054).
T1 construct: endogenous in cells; host or cells: platelet impurities in human PMNL preparations
T1 sequence (P18054 1-663): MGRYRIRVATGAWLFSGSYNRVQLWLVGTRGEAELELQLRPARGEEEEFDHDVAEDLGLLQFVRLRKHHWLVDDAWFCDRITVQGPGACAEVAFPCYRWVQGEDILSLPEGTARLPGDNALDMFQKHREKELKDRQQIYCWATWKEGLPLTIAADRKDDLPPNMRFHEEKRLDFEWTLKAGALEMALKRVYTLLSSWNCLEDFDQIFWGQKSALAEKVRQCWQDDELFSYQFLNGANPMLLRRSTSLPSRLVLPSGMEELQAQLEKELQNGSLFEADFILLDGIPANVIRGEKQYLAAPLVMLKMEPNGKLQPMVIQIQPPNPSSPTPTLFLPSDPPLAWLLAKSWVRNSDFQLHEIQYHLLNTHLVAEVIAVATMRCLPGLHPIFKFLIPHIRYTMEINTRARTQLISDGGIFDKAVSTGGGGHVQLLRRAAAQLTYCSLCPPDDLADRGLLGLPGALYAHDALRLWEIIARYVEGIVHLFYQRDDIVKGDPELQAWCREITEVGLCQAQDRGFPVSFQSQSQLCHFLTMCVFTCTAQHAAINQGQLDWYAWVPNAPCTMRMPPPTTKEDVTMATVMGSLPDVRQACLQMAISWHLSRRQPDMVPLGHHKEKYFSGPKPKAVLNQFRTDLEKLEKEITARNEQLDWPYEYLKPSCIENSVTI
The assay is described as follows: 12-HETE formation in intact PMNL, A23187 in absence of AA. Particulars: read-out: PMNL (w/o AA) 12-HETE IC50. The class given is cell-based.

A further assay concerns the target T2, 5-LO (Homo sapiens, UniProt P09917).
T2 construct: endogenous in cells; host or cells: human PMNL from buffy coats
T2 sequence (P09917 1-674): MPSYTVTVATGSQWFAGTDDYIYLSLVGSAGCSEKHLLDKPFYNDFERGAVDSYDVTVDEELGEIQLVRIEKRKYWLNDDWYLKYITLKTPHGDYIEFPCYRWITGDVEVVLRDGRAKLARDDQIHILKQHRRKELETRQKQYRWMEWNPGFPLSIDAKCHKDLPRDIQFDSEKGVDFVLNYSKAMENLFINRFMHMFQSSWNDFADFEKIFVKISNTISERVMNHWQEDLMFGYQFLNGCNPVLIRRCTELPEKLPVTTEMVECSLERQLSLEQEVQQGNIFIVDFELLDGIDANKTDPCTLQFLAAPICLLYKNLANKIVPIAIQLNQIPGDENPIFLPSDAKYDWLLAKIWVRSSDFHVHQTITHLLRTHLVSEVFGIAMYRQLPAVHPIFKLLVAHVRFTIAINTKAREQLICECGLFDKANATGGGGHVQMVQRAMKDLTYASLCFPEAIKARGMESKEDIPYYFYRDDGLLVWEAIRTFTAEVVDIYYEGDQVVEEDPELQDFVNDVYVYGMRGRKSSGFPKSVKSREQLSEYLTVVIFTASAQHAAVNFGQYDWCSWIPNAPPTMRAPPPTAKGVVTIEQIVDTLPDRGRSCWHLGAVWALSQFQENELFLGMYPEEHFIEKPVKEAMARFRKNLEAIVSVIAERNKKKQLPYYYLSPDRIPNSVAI
The assay is described as follows: 5-LO product formation (LTB4, 5-HETE) in intact PMNL, A23187 in absence of AA. The class given is cell-based. Here is the method:
Buffy coats from different donors of different blood types were commercially obtained from DRK Blutspendedienst Baden-Württemberg Institute Frankfurt. Donors have given their written consent. To avoid initial blood clotting only buffy coats from one donor or several donors with the same blood type were combined and diluted with 1× PBS mixed with 5% dextran solution and allowed to stand for 30 min at RT to separate the erythrocytes. Following separation, the supernatant was transferred very gently to new 50-ml tubes containing lymphocyte separation medium (LSM) and centrifuged for 10 min at 800 ×g at RT with the centrifuge brake turned off. Afterwards, the supernatant was decanted carefully to discard the platelets and monocytes. The PMNL were washed with 1× PBS before the residual erythrocytes were lysed in two cycles: the cell pellet was resuspended with 10 ml H2O and vortexed for 45 s, and lysis was stopped with 40 ml 1 × PBS. After 10-min centrifugation at 200 ×g at RT, the cycle was repeated once. The supernatant was aspirated, the cell pellet resuspended in 5 ml PBS/glucose and initially separated PMNL preparations with different blood types were finally pooled to gain a sufficient number of cells.
5-LO activity in intact cells was assayed by measuring LTB4 (leukotriene B4) and 5-HETE (5-hydroxyeicosatetraenoic acid) levels in the PMNL supernatants. […] Recombinant 5-LO enzyme activity was assessed by the determination of 5-HETE levels representing a direct product assay. In the cell-based LO activity assays, 5 × 10^6 cells per ml PBS/glucose were transferred to 5 ml glass tubes containing 1 mM CaCl2 and stored on ice. […] […] Recombinant 5-LO activity assays were carried out using 3 µg r5LO-wt enzyme. The enzyme was diluted in PBS/EDTA/ATP, transferred into 5-ml glass tubes, and stored on ice. […] The samples were then pre-heated at 37°C in a water bath and subsequently stimulated with 1 mM CaCl2 and 20 µM AA for 10 min at 37°C. The reaction was stopped by placing the glass tubes on ice. The supernatants were transferred to 1.5 ml reaction tubes and stored at −80°C before LC-MS (liquid chromatography and mass spectrometry) analysis of LTB4 and HETEs as described in 2.6 at the Institute of Pharmacology, Goethe University, University Hospital, Germany.
For experiments shown in Table 4 samples after treatment were supplemented with 500 µl PBS, 30 µl HCl (1 N), and 200 ng internal standard prostaglandin B1. Those samples containing intact cells were centrifuged for 10 min (870 g, room temperature). […] The eluate was diluted with 125 µl H2O and analyzed by reverse-phase HPLC as previously described ([Steinhilber et al., 1989]). […] Unless otherwise stated, 5-LO metabolites 6-trans-LTB4, 12-epi-6-trans-LTB4, LTB4, and 5-H(p)ETE were quantified.

Where [1] appears, read: read-out: PMNL (w/o AA) 5-HETE IC50.
[2] abbreviates: read-out: PMNL (w/o AA) LTB4 IC50.

Where two headings read alike, the source gives them in different places.

Experimental findings from article PMC8637440, “Structural Modifications Yield Novel Insights Into the Intriguing Pharmacodynamic Potential of Anti-inflammatory Nitro-Fatty Acids” (Frontiers in Pharmacology, 2021) are described below.

`CCCCCCCCC=C(CCCCCCCC(=O)O)[N+](=O)[O-]` [18.9.9, 9-nitro-octadec-9-enoic acid]: the figures for the IC50 at 12-LO, at 5-LO (setting [1]) and at 5-LO (setting [2]) were 6260 ± 823 nM, 2340 ± 1500 nM and 2580 ± 1400 nM, respectively.

Consider `CCCCCCCCCCC=C(CCCCCCCC(=O)O)[N+](=O)[O-]` [20.9.9, 9-nitro-eicos-9-enoic acid], for which the IC50 on 12-LO was 15500 ± 740 nM; at 5-LO (setting [1]), 2060 ± 1340 nM; at 5-LO (setting [2]), 2050 ± 1250 nM.
